Results reported in patent publication US6737383B1, “Herbicidal oxadiazolidines” (priority 1999, dated 2004).

Legend:
pigweed = experiment: Test B pre/postemergence pigweed; type: in vivo, Amaranthus retroflexus
Method in brief: (§1)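 Test chemicals in a non-phytotoxic solvent mixture with surfactant were sprayed preemergence onto planted seeds and postemergence onto plants 2 to 18 cm tall (1- to 4-leaf stage). After twelve to sixteen days in a greenhouse, injury was visually rated against untreated controls from 0 (no effect) to 10 (complete control).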

blackgrass = experiment: Test B pre/postemergence blackgrass; type: in vivo, Alopecurus myosuroides
Method in brief: as §1

wheat = experiment: Test B pre/postemergence wheat; type: in vivo, Triticum aestivum
Method in brief: as §1

purple nutsedge = experiment: Test B pre/postemergence purple nutsedge; type: in vivo, Cyperus rotundus
Method in brief: as §1

giant foxtail = experiment: Test B pre/postemergence giant foxtail; type: in vivo, Setaria faberii
Method in brief: as §1

soybean = experiment: Test B pre/postemergence soybean; type: in vivo, Glycine max
Method in brief: as §1

surinam grass = experiment: Test B pre/postemergence surinam grass; type: in vivo, Brachiaria decumbens
Method in brief: as §1

wild oat = experiment: Test B pre/postemergence wild oat; type: in vivo, Avena fatua
Method in brief: as §1

duck salad = experiment: Test B flood test duck salad; type: in vivo, Heteranthera limosa
Method in brief: (§2)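 Plants were grown to the 2-leaf stage before treatment with test chemical, then held in a greenhouse for twelve to sixteen days. Injury was visually rated against untreated controls on a 0–10 scale, where 0 is no effect and 10 is complete control.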

sugar beet = experiment: Test B pre/postemergence sugar beet; type: in vivo, Beta vulgaris
Method in brief: as §1

crabgrass = experiment: Test B pre/postemergence crabgrass; type: in vivo, Digitaria sanguinalis
Method in brief: as §1

corn = experiment: Test B pre/postemergence corn; type: in vivo, Zea mays
Method in brief: as §1

cocklebur = experiment: Test B pre/postemergence cocklebur; type: in vivo, Xanthium strumarium
Method in brief: as §1

velvetleaf = experiment: Test B pre/postemergence velvetleaf; type: in vivo, Abutilon theophrasti
Method in brief: as §1

bedstraw = experiment: Test B pre/postemergence bedstraw; type: in vivo, Galium aparine
Method in brief: as §1

rice = experiment: Test B flood test rice; type: in vivo, Oryza sativa
Method in brief: as §2

[1] = Postemergence, Rate 62 g/ha, scale 0 to 10, 0 is no effect, 10 is complete control
[2] = Postemergence, Rate 125 g/ha, scale of 0 to 10 where 0 is no effect and 10 is complete control
[3] = Preemergence, Rate 62 g/ha, scale of 0 to 10 where 0 is no effect and 10 is complete control
[4] = Preemergence, Rate 125 g/ha, scale of 0 to 10 where 0 is no effect and 10 is complete control
[5] = Preemergence, Rate 500 g/ha, scale of 0 to 10 where 0 is no effect and 10 is complete control
[6] = Rate 500 g/ha, Postemergence, scale 0 to 10, 0 is no effect, 10 is complete control
[7] = Postemergence, Rate 250 g/ha, scale of 0 to 10, 0 is no effect, 10 is complete control
[8] = Preemergence, Rate 250 g/ha, scale 0 to 10 (0 no effect, 10 complete control)
[9] = Rate 62 g/ha, flood test species, Pre-emergence, visual evaluation after twelve to sixteen days
[10] = Rate 125 g/ha, under heading Pre-emergence, flood test species, visual evaluation after twelve to sixteen days
[11] = Rate 250 g/ha, Pre-emergence (flood test species), scale 0 to 10, 0 is no effect, 10 is complete control
[12] = Rate 500 g/ha, Pre-emergence section of Table B, 0 to 10 scale (0 no effect, 10 complete control)

Structure (SMILES): CC(C)N(C(=O)n1oc(=O)n(CCCC#N)c1=O)c1ccc(F)cc1F [Compound 675]
- Plant response rating, Redroot pigweed (pigweed; [1]): 2
- Redroot pigweed plant response rating (pigweed; [2]): 2
- Redroot pigweed plant response rating (pigweed; [3]): 5
- Plant response rating, Redroot pigweed (pigweed; [4]): 9
- Plant response rating, Redroot pigweed (pigweed; [5]): 10
- Redroot pigweed plant response rating (pigweed; [6]): 8
- Plant response rating, Blackgrass (blackgrass; [1]): 5
- Blackgrass plant response rating (blackgrass; [2]): 5
- Blackgrass plant response rating (blackgrass; [7]): 7
- Blackgrass plant response rating (blackgrass; [3]): 5
- Plant response rating, Blackgrass (blackgrass; [4]): 9
- Plant response rating, Blackgrass (blackgrass; [8]): 9
- Plant response rating, Blackgrass (blackgrass; [5]): 10
- Blackgrass plant response rating (blackgrass; [6]): 9
- Plant response rating, Wheat (wheat; [1]): 0
- Wheat plant response rating (wheat; [2]): 3
- Wheat plant response rating (wheat; [3]): 0
- Plant response rating, Wheat (wheat; [4]): 2
- Plant response rating, Wheat (wheat; [5]): 9
- Wheat plant response rating (wheat; [6]): 7
- Plant response rating, Nutsedge (purple nutsedge; [1]): 0
- Nutsedge plant response rating (purple nutsedge; [2]): 0
- Nutsedge plant response rating (purple nutsedge; [3]): 0
- Plant response rating, Nutsedge (purple nutsedge; [4]): 0
- Plant response rating, Nutsedge (purple nutsedge; [5]): 7
- Nutsedge plant response rating (purple nutsedge; [6]): 8
- Plant response rating, Giant foxtail (giant foxtail; [1]): 8
- Giant foxtail plant response rating (giant foxtail; [2]): 9
- Giant foxtail plant response rating (giant foxtail; [7]): 9
- Giant foxtail plant response rating (giant foxtail; [3]): 9
- Plant response rating, Giant foxtail (giant foxtail; [4]): 10
- Plant response rating, Giant foxtail (giant foxtail; [5]): 10
- Giant foxtail plant response rating (giant foxtail; [6]): 9
- Plant response rating, Soybean (soybean; [1]): 4
- Soybean plant response rating (soybean; [2]): 5
- Soybean plant response rating (soybean; [3]): 0
- Plant response rating, Soybean (soybean; [4]): 0
- Plant response rating, Soybean (soybean; [5]): 4
- Soybean plant response rating (soybean; [6]): 5
- Plant response rating, B. signalgrass (surinam grass; [1]): 1
- B. signalgrass plant response rating (surinam grass; [2]): 4
- B. signalgrass plant response rating (surinam grass; [7]): 8
- B. signalgrass plant response rating (surinam grass; [3]): 4
- Plant response rating, B. signalgrass (surinam grass; [4]): 6
- Plant response rating, B. signalgrass (surinam grass; [8]): 8
- Plant response rating, B. signalgrass (surinam grass; [5]): 10
- B. signalgrass plant response rating (surinam grass; [6]): 8
- Plant response rating, Wild oats (wild oat; [1]): 0
- Wild oats plant response rating (wild oat; [2]): 0
- Wild oats plant response rating (wild oat; [3]): 4
- Plant response rating, Wild oats (wild oat; [4]): 5
- Plant response rating, Wild oats (wild oat; [5]): 10
- Wild oats plant response rating (wild oat; [6]): 7
- Plant response rating, Ducksalad (0 to 10 scale, 0 is no effect, 10 is complete control) (duck salad; [9]): 0
- Ducksalad plant response rating (0 to 10 scale, 0 is no effect, 10 is complete control) (duck salad; [10]): 0
- Ducksalad plant response rating (duck salad; [11]): 0
- Ducksalad plant response rating (duck salad; [12]): 0
- Plant response rating, Sugarbeets (sugar beet; [1]): 0
- Sugarbeets plant response rating (sugar beet; [2]): 2
- Sugarbeets plant response rating (sugar beet; [3]): 5
- Plant response rating, Sugarbeets (sugar beet; [4]): 7
- Plant response rating, Sugarbeets (sugar beet; [5]): 10
- Sugarbeets plant response rating (sugar beet; [6]): 4
- Plant response rating, Crabgrass (crabgrass; [1]): 6
- Crabgrass plant response rating (crabgrass; [2]): 8
- Crabgrass plant response rating (crabgrass; [7]): 9
- Crabgrass plant response rating (crabgrass; [3]): 6
- Plant response rating, Crabgrass (crabgrass; [4]): 7
- Plant response rating, Crabgrass (crabgrass; [8]): 9
- Plant response rating, Crabgrass (crabgrass; [5]): 10
- Crabgrass plant response rating (crabgrass; [6]): 9
- Plant response rating, Corn (corn; [1]): 0
- Corn plant response rating (corn; [2]): 0
- Corn plant response rating (corn; [7]): 0
- Corn plant response rating (corn; [3]): 0
- Plant response rating, Corn (corn; [4]): 3
- Plant response rating, Corn (corn; [8]): 6
- Plant response rating, Corn (corn; [5]): 9
- Corn plant response rating (corn; [6]): 6
- Plant response rating, Cocklebur (cocklebur; [1]): 0
- Cocklebur plant response rating (cocklebur; [2]): 3
- Cocklebur plant response rating (cocklebur; [7]): 3
- Cocklebur plant response rating (cocklebur; [3]): 0
- Plant response rating, Cocklebur (cocklebur; [4]): 0
- Plant response rating, Cocklebur (cocklebur; [8]): 0
- Plant response rating, Cocklebur (cocklebur; [5]): 0
- Cocklebur plant response rating (cocklebur; [6]): 3
- Plant response rating, Velvetleaf (velvetleaf; [1]): 0
- Velvetleaf plant response rating (velvetleaf; [2]): 2
- Velvetleaf plant response rating (velvetleaf; [3]): 6
- Plant response rating, Velvetleaf (velvetleaf; [4]): 7
- Plant response rating, Velvetleaf (velvetleaf; [5]): 10
- Velvetleaf plant response rating (velvetleaf; [6]): 8
- Plant response rating, Bedstraw (bedstraw; [1]): 0
- Bedstraw plant response rating (bedstraw; [2]): 1
- Bedstraw plant response rating (bedstraw; [7]): 6
- Bedstraw plant response rating (bedstraw; [3]): 0
- Plant response rating, Bedstraw (bedstraw; [4]): 2
- Plant response rating, Bedstraw (bedstraw; [8]): 10
- Plant response rating, Bedstraw (bedstraw; [5]): 10
- Plant response rating, Rice (0 to 10 scale, 0 is no effect, 10 is complete control) (rice; [9]): 0
- Rice plant response rating (0 to 10 scale, 0 is no effect, 10 is complete control) (rice; [10]): 0
- Rice plant response rating (rice; [11]): 0
- Rice plant response rating (rice; [12]): 0
